According to ChEMBL document CHEMBL1201862, “PubChem BioAssay data set” (2004):
The source made the active and inactive calls.

What was measured:
HeLa = assay: ATP-based viability loss in HeLa cells – cell-based, CellTiter-Glo luminescence, cherry-pick samples, cytotoxicity control for MITF activator project, dose response (AID 540259); assay type: functional; conditions: Homo sapiens
A-375 = assay: MITF: Counter assay: A375 proliferation Measured in Cell-Based System Using Plate Reader - 2084-03_Inhibitor_Dose_DryPowder_Activity. [Related pubchem assays (depositor defined):AID488944]; assay type: functional; conditions: Homo sapiens
[1] = target: T1, Microphthalmia-associated transcription factor (Homo sapiens, UniProt O75030); assay: reducers of TRPM1 reporter luminescence, concentration series – cell-based, SK-MEL-5, cherry-picked, set 3, MITF inhibitor project, dose response (AID 493073); assay type: functional;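 also: SK-MEL-5 melanoma cells with luciferase driven by the MITF target TRPM1 promoter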
T1 sequence (O75030 whole entry): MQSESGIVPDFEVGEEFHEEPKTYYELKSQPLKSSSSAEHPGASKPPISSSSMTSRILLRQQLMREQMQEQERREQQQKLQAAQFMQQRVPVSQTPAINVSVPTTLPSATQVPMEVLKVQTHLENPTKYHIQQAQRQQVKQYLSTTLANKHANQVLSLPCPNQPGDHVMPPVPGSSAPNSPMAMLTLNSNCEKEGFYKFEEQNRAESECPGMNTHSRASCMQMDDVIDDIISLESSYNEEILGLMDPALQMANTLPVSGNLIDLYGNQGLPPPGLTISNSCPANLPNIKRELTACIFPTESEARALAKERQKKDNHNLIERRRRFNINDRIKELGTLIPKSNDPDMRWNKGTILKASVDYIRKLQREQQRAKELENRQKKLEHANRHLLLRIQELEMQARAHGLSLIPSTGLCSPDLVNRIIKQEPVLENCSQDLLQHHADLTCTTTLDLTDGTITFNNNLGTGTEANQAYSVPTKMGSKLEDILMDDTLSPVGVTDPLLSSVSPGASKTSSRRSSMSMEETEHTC

[2] = activation of miR-122 Renilla sensor silencing – cell-based, Huh7 psiCHECK-miR122, Renilla luciferase, cherry-picked, dose response (AID 651956); assay type: functional;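 also: huh7 hepatoma cells stably carrying a psiCHECK-2 miR-122 sensor plasmid; renilla luciferase signal reporting endogenous miR-122 activity after 48 h compound exposure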
[3] = target: T2, DNA repair and recombination protein RAD54-like (Homo sapiens, UniProt Q92698); assay: RAD54 Holliday junction migration blockers – biochemical, fluorescence, cherry-picked samples, dose series, confirmation (AID 651657); assay type: functional
T2 sequence (Q92698 whole entry): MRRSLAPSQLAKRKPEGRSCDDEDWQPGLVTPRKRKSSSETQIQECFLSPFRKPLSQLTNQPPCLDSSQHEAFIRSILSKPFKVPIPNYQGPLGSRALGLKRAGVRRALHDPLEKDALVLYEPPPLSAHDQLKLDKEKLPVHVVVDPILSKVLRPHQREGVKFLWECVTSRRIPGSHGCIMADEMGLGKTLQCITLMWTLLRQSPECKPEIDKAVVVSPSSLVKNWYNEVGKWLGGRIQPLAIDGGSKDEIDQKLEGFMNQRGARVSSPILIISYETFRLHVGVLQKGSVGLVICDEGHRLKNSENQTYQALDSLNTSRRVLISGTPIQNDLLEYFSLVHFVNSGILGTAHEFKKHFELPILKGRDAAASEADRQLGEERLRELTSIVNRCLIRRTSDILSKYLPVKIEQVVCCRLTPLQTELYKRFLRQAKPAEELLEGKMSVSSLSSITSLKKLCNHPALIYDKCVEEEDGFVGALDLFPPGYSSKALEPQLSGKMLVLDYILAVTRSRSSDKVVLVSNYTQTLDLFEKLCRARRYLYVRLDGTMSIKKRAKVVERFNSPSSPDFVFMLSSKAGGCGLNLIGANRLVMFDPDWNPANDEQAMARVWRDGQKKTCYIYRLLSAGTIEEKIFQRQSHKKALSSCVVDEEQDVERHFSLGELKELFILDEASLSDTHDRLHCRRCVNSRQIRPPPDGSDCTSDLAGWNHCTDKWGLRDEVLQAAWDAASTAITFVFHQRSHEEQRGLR

[4] = target: T3, Ubiquitin-conjugating enzyme E2 N (Homo sapiens, UniProt P61088); assay type: functional
T3 sequence (P61088 whole entry): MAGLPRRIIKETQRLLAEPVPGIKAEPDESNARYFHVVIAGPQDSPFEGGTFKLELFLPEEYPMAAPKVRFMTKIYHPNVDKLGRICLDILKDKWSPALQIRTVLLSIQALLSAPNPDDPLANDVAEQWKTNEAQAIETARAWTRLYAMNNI

[5] = target: T3, Ubiquitin-conjugating enzyme E2 N; assay type: functional; remark: listed apart in the source
Bcl-2-related protein A1 = target: T4, Bcl-2-related protein A1 (Mus musculus, UniProt Q07440); assay type: functional;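 also: confirmatory dose–response counterscreen on Bfl-1, used to check hits from a UBC13 polyubiquitin inhibitor campaign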
T4 sequence (Q07440 whole entry): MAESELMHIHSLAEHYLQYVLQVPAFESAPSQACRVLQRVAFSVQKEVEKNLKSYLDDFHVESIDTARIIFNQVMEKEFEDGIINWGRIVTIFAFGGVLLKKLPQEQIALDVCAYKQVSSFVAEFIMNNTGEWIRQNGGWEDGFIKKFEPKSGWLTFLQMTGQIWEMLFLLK

[6] = target: T5, Carboxy-terminal domain RNA polymerase II polypeptide A small phosphatase 1 (Homo sapiens, UniProt Q9GZU7); assay: CTDSP1 inhibitors, concentration-response, biochemical, absorbance readout, ultra-high-throughput screen actives (AID 540297); assay type: functional
T5 sequence (Q9GZU7 whole entry): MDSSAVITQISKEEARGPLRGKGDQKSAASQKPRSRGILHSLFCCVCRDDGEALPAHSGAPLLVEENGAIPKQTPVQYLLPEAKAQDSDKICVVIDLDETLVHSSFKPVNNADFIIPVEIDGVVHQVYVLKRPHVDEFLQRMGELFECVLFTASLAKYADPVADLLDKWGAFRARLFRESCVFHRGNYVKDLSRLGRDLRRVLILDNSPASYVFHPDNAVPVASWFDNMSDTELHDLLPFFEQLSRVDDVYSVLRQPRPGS

Cytochrome P450 1A2 = target: T6, Cytochrome P450 1A2 (Homo sapiens, UniProt P05177);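 also: PubChem cytochrome P450 panel assay, CYP1A2 panel member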
T6 sequence (P05177 whole entry): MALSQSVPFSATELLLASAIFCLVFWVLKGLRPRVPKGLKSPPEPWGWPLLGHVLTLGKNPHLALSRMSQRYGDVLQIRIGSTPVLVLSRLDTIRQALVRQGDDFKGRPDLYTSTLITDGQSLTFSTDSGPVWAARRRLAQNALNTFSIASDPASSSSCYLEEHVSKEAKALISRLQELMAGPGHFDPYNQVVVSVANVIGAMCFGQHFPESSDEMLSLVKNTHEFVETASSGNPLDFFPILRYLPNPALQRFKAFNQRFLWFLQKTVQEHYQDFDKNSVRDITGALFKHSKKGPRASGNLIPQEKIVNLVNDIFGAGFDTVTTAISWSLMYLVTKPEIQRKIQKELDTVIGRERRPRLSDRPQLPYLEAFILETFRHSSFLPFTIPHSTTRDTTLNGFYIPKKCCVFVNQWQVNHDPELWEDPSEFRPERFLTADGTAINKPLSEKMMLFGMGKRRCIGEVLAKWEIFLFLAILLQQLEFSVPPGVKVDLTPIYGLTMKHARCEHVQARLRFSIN

Cytochrome P450 2D6 = Cytochrome P450 2D6 (Homo sapiens, UniProt P10635);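 also: CYP2D6 member of a cytochrome P450 panel assay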
Sequence of Cytochrome P450 2D6 (P10635 whole entry): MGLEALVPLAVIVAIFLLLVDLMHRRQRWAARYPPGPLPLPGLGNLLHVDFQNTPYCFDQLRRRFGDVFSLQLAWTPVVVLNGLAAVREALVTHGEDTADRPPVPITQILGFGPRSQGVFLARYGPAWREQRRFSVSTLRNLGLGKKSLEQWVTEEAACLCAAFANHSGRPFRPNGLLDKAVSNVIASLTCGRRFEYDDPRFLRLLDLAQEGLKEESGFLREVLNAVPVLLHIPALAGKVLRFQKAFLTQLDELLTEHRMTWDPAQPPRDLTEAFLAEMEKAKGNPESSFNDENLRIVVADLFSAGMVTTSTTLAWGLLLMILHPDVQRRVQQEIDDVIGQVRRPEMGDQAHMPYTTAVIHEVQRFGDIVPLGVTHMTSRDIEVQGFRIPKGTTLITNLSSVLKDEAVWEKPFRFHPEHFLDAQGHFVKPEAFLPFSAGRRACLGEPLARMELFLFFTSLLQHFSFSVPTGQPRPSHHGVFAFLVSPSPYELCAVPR

Cytochrome P450 2C9 = Cytochrome P450 2C9 (Homo sapiens, UniProt P11712)
Sequence of Cytochrome P450 2C9 (P11712 whole entry): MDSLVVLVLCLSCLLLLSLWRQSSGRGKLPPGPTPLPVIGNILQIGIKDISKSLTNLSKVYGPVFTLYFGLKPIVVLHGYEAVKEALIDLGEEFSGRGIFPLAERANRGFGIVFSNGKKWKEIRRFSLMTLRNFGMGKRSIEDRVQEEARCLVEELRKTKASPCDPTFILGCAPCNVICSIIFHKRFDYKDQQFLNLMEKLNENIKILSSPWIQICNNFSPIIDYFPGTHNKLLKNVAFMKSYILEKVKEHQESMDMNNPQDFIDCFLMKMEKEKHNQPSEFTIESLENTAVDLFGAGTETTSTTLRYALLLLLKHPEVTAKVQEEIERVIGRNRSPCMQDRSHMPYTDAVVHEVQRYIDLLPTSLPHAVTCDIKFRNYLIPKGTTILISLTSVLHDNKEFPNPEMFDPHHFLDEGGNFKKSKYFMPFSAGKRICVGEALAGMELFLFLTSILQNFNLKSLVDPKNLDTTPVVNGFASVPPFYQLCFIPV

HEK293 [7] = assay: cells; conditions: Homo sapiens
Tumor necrosis factor = Tumor necrosis factor (Homo sapiens, UniProt P01375); assay: analog potency on TNFa NF-kB signaling – cell-based, revised, SAR follow-up (AID 2337); assay type: functional
Sequence of Tumor necrosis factor (P01375 whole entry): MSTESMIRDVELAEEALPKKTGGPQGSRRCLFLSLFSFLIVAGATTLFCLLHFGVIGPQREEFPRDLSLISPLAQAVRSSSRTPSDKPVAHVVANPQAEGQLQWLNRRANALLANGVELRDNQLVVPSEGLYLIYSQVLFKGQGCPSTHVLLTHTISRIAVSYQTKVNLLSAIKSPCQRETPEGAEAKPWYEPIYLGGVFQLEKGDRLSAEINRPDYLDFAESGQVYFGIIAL

[8] = target: FAD-linked sulfhydryl oxidase ALR (Homo sapiens, UniProt P55789); assay: ALR-catalysed DTT oxidation blockers – biochemical, H2O2 detection, luminescence, cherry-pick, dose response (AID 493248)
Sequence of FAD-linked sulfhydryl oxidase ALR (P55789 whole entry): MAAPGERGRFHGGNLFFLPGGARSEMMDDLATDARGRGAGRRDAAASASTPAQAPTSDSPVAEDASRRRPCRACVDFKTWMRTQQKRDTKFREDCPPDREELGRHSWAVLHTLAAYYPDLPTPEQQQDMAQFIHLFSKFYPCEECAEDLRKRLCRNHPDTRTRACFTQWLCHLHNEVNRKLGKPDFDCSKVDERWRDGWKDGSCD

Protein RecA = target: T7, Protein RecA (Mycobacterium tuberculosis, UniProt P9WHJ3); assay: Fluorescence Cell-Free Homogeneous Dose Retest to Identify Inhibitors of RecA-Intein Splicing Activity. [Related pubchem assays (depositor defined):AID2097, AID2223, AID489010, AID492950]; assay type: functional
T7 sequence (P9WHJ3 whole entry): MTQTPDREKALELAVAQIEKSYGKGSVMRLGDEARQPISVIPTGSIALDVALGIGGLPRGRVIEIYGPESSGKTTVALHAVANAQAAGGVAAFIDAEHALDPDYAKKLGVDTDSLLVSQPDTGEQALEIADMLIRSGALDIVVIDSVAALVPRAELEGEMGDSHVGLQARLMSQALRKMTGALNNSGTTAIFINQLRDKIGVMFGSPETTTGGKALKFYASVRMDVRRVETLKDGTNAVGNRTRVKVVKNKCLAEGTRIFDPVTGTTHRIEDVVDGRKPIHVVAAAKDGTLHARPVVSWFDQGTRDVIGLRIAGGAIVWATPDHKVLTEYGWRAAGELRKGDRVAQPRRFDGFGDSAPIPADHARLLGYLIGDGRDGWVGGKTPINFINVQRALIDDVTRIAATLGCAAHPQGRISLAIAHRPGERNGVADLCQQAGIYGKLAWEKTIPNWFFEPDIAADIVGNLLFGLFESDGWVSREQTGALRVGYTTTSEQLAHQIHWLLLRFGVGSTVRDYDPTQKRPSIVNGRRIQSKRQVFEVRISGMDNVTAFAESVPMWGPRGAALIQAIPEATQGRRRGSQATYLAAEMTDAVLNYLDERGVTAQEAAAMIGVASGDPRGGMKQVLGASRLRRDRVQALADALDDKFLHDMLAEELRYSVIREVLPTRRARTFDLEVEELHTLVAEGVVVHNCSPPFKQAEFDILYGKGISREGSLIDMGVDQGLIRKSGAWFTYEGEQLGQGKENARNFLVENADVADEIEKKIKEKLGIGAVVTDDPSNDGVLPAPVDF

[9] = target: T8, Replicative DNA helicase DnaB (Mycobacterium tuberculosis, UniProt P9WMR3); assay: DnaB intein splicing inhibitors, dose response, biochemical, cell-free fluorescence (AID 449749); assay type: functional
T8 sequence (P9WMR3 whole entry): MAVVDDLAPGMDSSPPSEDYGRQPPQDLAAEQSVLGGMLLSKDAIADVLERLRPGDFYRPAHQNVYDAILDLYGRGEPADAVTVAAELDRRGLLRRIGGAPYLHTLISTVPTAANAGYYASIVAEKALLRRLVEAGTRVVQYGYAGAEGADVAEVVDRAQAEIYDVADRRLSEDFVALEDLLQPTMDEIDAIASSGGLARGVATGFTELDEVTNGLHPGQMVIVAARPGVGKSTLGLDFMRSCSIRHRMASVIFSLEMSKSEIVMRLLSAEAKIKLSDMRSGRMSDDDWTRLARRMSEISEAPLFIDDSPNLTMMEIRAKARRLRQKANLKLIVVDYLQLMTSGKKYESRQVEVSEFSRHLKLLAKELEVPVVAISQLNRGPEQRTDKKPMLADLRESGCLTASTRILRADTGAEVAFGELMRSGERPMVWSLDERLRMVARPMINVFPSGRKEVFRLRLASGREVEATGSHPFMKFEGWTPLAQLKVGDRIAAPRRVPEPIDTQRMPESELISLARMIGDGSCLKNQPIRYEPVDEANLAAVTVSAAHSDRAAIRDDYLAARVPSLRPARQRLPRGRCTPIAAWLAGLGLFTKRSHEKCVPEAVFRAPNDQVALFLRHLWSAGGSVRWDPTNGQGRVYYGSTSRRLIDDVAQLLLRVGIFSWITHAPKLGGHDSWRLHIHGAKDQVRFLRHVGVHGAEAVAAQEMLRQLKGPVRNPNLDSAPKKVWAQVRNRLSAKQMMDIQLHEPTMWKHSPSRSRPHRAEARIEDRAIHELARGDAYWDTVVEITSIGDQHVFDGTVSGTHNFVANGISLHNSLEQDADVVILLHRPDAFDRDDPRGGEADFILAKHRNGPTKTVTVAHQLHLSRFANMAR

HEK293 [10] = assay: EBV LMP1 TES2 canonical NF-kB signalling blockers – cell-based, HEK293, luciferase, cherry-pick, dose response (AID 588343); assay type: functional; conditions: Homo sapiens
[11] = viability loss in THP-1 monocytes – THP-1 cells, cytotoxicity control for Vif-APOBEC3G degradation inhibitor project, dose response (AID 1117359); assay type: functional; conditions: THP-1
Protein Tat = target: T9, Protein Tat (Human immunodeficiency virus type 1 group M subtype B (isolate HXB2)(HIV-1), UniProt P04608); assay type: functional;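 also: tat binding to TAR RNA read out by fluorescence polarization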
T9 sequence (P04608 whole entry): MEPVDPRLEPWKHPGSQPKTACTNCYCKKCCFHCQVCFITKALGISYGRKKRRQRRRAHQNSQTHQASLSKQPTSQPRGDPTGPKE

Compound: O=C(Nc1ccc(-c2nc3cccnc3s2)cc1)c1ccc(Cl)nc1
- AC50 (HeLa): 201 µM (active)

Compound: Cc1cc(C)cc(NS(=O)(=O)c2ccc3c(c2)c(=O)n(C)c(=O)n3C)c1
- AC50 (A-375): 17.3 µM (active)
- AC50 [1]: 4.67 µM (active)

Compound: C=CCc1ccccc1OCC(O)CN1CCN(CCN2C(=O)c3cccc4cccc(c34)C2=O)CC1 (centres undefined)
- AC50 [2]: 8.26 µM (active)
- AC50 [3]: 9.3 µM (active)
- IC50 [4]: 17.2 µM (active)
- IC50 [5]: 17.7 µM (active)
- IC50 (Bcl-2-related protein A1): > 20 µM (inactive)

Compound: COc1cc(NC(=O)c2ccc3c(c2)C(=O)N(CCC(C)C)C3=O)c(C(=O)O)cc1OC
- IC50 [6]: 7.04 µM (active)

Compound: COc1ccc(OC)c2nc(O)c(CCNS(=O)(=O)c3ccc(C)cc3)cc12
- AC50 (Cytochrome P450 1A2): 12.6 µM (inconclusive)
- AC50 (Cytochrome P450 2D6): inconclusive

Compound: CC(=O)c1c(C(C)=O)c(C)n(NC(=O)c2ccccc2Cl)c1C
- AC50 (Cytochrome P450 2C9): inconclusive
- AC50 (Cytochrome P450 2D6): inconclusive

Compound: CN(C)c1ccc(NC(=O)c2ccc(CN3CCCCC3)cc2)cc1
- IC50 (HEK293 [7]): > 20 µM (inactive)
- IC50 (Tumor necrosis factor): > 20 µM (inactive)

Compound: CC(C)(C)c1ccc(C(=O)O/N=C(\N)c2cccc([N+](=O)[O-])c2)cc1
- IC50 (HEK293 [7]): > 20 µM (inactive)

Compound: Cc1cc(Sc2nnc(/N=C/N(C)C)s2)c2ccccc2n1
- AC50 [8]: 0.801 µM (active)
- IC50 [4]: 8.88 µM (active)
- EC50 (Protein RecA): 10.3 µM (active)
- AC50 [9]: 39.8 µM (active)
- IC50 [5]: 11 µM (active)
- AC50 (HEK293 [10]): 2.9 µM (active)
- IC50 (Bcl-2-related protein A1): > 20 µM (inactive)

Compound: CCOC(=S)SCC(=O)O
- AC50 (Cytochrome P450 2D6): inconclusive

Compound: CC(=O)N(\C=C/C=C/C=C1\Sc2ccccc2C1=O)c1ccccc1
- CC50 [11]: > 40 µM (active)
- AC50 (A-375): 50.7 µM (active)
- IC50 (Protein Tat): > 100 µM (active)
- AC50 [1]: 8 µM (active)

Compound: O=C(CSc1nc2sc3c(c2c(=O)n1-c1ccccc1)CCCC3)N/N=C/c1ccccc1C(=O)O
- IC50 [6]: 9.27 µM (active)
